Measured values taken from US9675609B2 (priority 2015, dated 2017).
Like-named read-outs stand apart in the source and are kept apart here.

Assays:
human tumor xenografts = human tumor xenografts in mice; Pantazis et al.; cited from earlier work
human HT29-colon tumor = conditions: nude mice; Cao et al. Cancer Research 2009; cited from earlier work
[1] = PK studies of raw CZ48 cottonseed oil suspension in mice; conditions: dose 100 mg/kg or higher
Description: (§1) Raw or native CZ48 powders have been intensively tested against human xenografts grown in nude mice. […] Cmax refers to the peak plasma concentration of the drug after administration.

[2] = PK absorption of CZ48 in dogs; type: in vivo; conditions: Dog, 400 mg/kg based on API content
Description: Tmax refers to time to reach Cmax.

human xenografts = assay: Raw CZ48 powders in cottonseed oil against 29 human xenografts in nude mice; type: in vivo; conditions: cancerous mice
Description: as §1

[3] = type: physicochemical; conditions: PSD of raw powders
[4] = Wall et al. 1969; Giovanella et al. 1991; cited from earlier work
[5] = analyte in blood, source CZ48 composite particles equivalent to 400 mg/kg API, single dose, female healthy mice, CPT is the metabolite

CC[C@@]1(O)C(=O)OCc2c1cc1n(c2=O)Cc2cc3c([N+](=O)[O-])cccc3nc2-1 [9NC, 9-nitrocamptothecin]
times more potent than CPT (human tumor xenografts): 2-3 times

CC[C@@]1(O)C(=O)OCc2c1cc1n(c2=O)Cc2cc3ccccc3nc2-1 [CPT, 20(S)-camptothecin, reference compound]
AUC0-24 [5]: 51.7 ng·h/mL
Cmax [5]: 26.0 ng/mL
Tmax [5]: 30 min

CCC(=O)O[C@]1(CC)C(=O)OCc2c1cc1n(c2=O)Cc2cc3ccccc3nc2-1 [CZ48, camptothecin-20-O-propionate hydrate]
dose needed to achieve the same result (good activity against HT29-colon tumor) (human HT29-colon tumor): 1000 mg/kg
Cmax [1]: greater than 100 ng/ml
AUC0-24 [2]: 38.7 ng·h/mL
Cmax [2]: 3.4 ng/mL
Tmax [2]: 240 min
Tmax (Mouse, 400 mg/kg based on API content): 60 min
Tmax [5]: 30 min
Cmax minimum requirement for a positive effect (human xenografts): 100 ng/mL
D[4,3] [3]: 7.612 μm
d(0.1) [3]: 2.612 μm
d(0.5) [3]: 6.220 μm
d(0.9) [3]: 14.556 μm

CC[C@@](O)(C(=O)[O-])c1cc2n(c(=O)c1CO)Cc1cc3ccccc3nc1-2.[Na+] [sodium carboxylate salt]
potency relative to native camptothecin with closed lactone ring [4]: 10%
